Experimental data taken from paper PMC8344761 (Journal of Enzyme Inhibition and Medicinal Chemistry, 2021).

How the values were obtained:
A-Raf = biological target: T1, A-Raf (Homo sapiens, UniProt P10398); experiment: Raf kinase assay (Kinase HotSpot, Reaction Biology Corp.); format: biochemical; conditions: for inhibition at 1 µM: fixed concentration 1 μM, mean of two independent experiments
T1 sequence (P10398 1-606): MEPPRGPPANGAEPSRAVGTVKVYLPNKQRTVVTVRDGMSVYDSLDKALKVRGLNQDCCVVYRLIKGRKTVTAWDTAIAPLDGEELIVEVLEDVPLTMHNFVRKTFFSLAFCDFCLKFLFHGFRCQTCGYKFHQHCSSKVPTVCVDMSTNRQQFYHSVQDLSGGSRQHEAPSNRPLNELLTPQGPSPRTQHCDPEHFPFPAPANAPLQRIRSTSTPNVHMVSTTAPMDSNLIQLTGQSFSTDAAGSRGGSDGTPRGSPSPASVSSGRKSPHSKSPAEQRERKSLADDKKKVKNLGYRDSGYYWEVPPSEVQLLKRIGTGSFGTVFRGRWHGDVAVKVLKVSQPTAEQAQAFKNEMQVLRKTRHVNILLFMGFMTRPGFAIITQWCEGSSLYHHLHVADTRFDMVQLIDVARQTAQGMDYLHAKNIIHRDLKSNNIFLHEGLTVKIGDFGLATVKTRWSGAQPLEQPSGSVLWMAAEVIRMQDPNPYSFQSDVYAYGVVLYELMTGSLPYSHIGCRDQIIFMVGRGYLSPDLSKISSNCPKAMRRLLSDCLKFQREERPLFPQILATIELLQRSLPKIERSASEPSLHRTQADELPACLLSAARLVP
Method: Compounds were delivered into each Raf reaction, followed ∼20 min later by addition of a mixture of ATP and [γ-^33P-ATP] (specific activity approx. 500 cpm/pmol, concentration as required) to a final concentration of 10 µM. […] Then, the reaction was spotted onto a P30 filtermat, and unbound phosphate was removed by washing three times for 5 min in 75 mM phosphoric acid and once in methanol prior to drying and scintillation counting. […] IC50 values and curve fits were obtained using Prism (GraphPad Software, La Jolla, CA).

B-Raf = B-Raf (Homo sapiens, UniProt P15056); experiment: as above; format: biochemical; conditions: for inhibition at 1 µM: fixed concentration 1 μM, mean of two independent experiments
Sequence of B-Raf (P15056 whole entry): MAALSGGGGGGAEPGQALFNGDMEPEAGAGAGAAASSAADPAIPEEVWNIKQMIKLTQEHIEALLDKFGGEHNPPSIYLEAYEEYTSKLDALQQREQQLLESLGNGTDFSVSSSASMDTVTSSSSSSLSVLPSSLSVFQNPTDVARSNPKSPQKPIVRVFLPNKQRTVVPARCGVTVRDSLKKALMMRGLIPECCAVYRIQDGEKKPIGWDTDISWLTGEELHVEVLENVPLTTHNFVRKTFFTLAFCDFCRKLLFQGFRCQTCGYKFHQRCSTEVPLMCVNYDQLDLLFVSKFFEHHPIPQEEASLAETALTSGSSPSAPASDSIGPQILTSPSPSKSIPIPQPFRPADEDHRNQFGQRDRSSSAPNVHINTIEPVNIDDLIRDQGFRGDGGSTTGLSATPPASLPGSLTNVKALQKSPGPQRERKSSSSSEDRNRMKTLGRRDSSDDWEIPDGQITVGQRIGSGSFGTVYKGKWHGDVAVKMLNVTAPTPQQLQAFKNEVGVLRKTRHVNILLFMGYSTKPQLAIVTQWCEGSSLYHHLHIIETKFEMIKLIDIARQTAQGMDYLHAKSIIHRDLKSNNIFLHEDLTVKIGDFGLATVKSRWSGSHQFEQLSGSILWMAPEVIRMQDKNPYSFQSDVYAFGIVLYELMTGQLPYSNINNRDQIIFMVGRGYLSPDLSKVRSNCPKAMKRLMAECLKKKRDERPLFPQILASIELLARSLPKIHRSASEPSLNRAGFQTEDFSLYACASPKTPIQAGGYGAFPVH
Method: (§1) Compounds were delivered into each Raf reaction, followed ∼20 min later by addition of a mixture of ATP and [γ-^33P-ATP] (specific activity approx. 500 cpm/pmol, concentration as required) to a final concentration of 10 µM. After incubation for 40 min at 25 °C, the reaction was stopped by the addition of a 3% phosphoric acid solution. Then, the reaction was spotted onto a P30 filtermat, and unbound phosphate was removed by washing three times for 5 min in 75 mM phosphoric acid and once in methanol prior to drying and scintillation counting. […] IC50 values and curve fits were obtained using Prism (GraphPad Software, La Jolla, CA).

B-Raf (V600E) = B-Raf (V600E) (Homo sapiens, UniProt P15056, V600E); experiment: as above; format: biochemical; conditions: for inhibition at 1 µM: fixed concentration 1 μM, mean of two independent experiments, B-Raf (V599E)
Sequence of B-Raf (V600E) (P15056 whole entry V600E): as the sequence (P15056 whole entry) above, with V600E counted along it
Method: as §1

C-Raf = C-Raf (Homo sapiens, UniProt P04049); experiment: as above; format: biochemical; conditions: for inhibition at 1 µM: fixed concentration 1 μM, mean of two independent experiments, read-out: Inhibition (%) C-Raf
Sequence of C-Raf (P04049 whole entry): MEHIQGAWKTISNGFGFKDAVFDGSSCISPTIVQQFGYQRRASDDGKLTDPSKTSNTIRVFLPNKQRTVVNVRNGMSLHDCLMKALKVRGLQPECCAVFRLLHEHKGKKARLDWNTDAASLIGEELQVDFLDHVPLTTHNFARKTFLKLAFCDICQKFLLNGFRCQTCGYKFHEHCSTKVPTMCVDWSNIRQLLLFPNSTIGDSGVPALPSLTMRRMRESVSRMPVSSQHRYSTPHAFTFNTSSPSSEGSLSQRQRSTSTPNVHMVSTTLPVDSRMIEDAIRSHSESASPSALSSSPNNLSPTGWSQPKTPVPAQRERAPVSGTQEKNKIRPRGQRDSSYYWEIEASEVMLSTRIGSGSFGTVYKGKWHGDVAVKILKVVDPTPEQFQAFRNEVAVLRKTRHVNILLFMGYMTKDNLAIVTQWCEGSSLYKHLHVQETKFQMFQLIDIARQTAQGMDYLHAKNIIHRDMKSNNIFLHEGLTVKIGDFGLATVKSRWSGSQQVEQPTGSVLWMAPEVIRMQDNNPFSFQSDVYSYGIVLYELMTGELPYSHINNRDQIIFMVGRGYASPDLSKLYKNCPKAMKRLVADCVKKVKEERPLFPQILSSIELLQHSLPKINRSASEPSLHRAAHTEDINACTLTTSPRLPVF
Method: as §1

VEGFR-2 tyrosine kinase = biological target: T2, VEGFR-2 tyrosine kinase (Homo sapiens, UniProt P35968); experiment: VEGFR-2 (KDR) kinase assay (ADP-glow); format: biochemical; conditions: fixed concentration 1 µM; read-out: inhibitory activity against VEGFR-2 tyrosine kinase
T2 construct: purchased Promega
T2 sequence (P35968 20-1356): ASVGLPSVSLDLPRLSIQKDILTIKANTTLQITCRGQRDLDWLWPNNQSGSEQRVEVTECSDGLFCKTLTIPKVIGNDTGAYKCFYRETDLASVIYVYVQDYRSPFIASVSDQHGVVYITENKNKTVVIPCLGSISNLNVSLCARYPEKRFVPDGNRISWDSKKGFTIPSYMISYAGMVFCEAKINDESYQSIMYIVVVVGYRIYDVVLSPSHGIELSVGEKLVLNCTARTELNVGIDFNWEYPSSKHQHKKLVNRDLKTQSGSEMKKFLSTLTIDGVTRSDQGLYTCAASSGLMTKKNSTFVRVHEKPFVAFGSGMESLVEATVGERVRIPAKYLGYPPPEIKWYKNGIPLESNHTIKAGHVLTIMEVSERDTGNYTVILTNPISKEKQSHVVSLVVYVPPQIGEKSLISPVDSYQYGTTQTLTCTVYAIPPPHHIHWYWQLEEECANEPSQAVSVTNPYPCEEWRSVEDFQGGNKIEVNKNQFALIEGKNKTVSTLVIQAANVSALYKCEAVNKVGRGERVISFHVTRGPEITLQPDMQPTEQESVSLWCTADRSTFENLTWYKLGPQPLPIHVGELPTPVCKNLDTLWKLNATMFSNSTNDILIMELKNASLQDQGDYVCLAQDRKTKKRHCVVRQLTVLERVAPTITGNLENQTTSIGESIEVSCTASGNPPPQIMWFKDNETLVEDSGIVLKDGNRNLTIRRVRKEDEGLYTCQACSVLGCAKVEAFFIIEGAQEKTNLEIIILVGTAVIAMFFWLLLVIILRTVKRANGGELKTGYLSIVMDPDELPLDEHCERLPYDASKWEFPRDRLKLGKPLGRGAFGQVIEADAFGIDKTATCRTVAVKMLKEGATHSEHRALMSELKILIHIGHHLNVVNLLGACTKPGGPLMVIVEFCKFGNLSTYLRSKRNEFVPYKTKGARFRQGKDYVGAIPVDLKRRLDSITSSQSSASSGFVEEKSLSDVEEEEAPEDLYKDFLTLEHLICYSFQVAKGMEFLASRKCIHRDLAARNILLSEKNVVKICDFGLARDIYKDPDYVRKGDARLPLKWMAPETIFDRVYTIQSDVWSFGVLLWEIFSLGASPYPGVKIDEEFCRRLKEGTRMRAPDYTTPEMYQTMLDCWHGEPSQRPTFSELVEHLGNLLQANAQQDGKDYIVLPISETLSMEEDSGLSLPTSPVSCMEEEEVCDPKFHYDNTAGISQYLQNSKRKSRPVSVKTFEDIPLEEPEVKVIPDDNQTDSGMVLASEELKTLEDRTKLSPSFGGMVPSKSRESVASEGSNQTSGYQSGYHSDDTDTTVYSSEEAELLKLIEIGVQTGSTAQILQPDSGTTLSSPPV

Hep3B = experiment: Cell proliferation assay (MTT); format: cell-based; conditions: Homo sapiens, 48 h, mean ± SEM of three independent experiments, read-out: Cancer cell proliferation IC50 Hep3B
Method: (§2) Hepatocellular carcinoma cell lines (HepG2, Huh7), human pancreatic ductal epithelial cell line (H6c7), and normal human colon cell line (CCD841) were obtained from the American Type Culture Collection (ATCC) (Manassas, VA, USA). Cells were cultured in DMEM/High Glucose media (Hep3B, Huh7, CCD841) or MEM/EBSS media (HepG2) containing 10% FBS, 100 IU/ml of penicillin and 100 µg/ml of streptomycin. H6c7 cells were cultured in keratinocyte serum free media supplemented with epidermal growth factor and bovine pituitary extract. Cells were maintained in 5% CO2 humidified atmosphere at 37 °C.
(§3) Cells were seeded in a 96-well plate and allowed to adhere for 24 h. The cells were serum starved in 1% serum containing medium for 12 h, and then treated with drugs in 10% serum-containing medium. After incubation for 48 h, cell proliferation was measured using MTT assay. Optical density was measured at 540 nm using a Spectrostar Nano microplate reader (BMG LABTECH GmbH, Ortenberg, Germany).

HepG2 = experiment: Cell proliferation assay (MTT); format: cell-based; conditions: Homo sapiens, 48 h, mean ± SEM of three independent experiments, read-out: Cancer cell proliferation IC50 HepG2
Method: as §2, §3

Huh7 = experiment: Cell proliferation assay (MTT); format: cell-based; conditions: Homo sapiens, Huh-7, 48 h, mean ± SEM of three independent experiments, read-out: Cancer cell proliferation IC50 Huh7
Method: as §2, §3

[1] = Cytotoxicity assay (MTT), normal cells; format: cell-based, human; conditions: human, mean ± SEM
Method: as §2
Cells were seeded in a 96-well plate and allowed to adhere for 24 h. Cells in low serum (1%)-containing medium were treated with drugs for 48 h. In case of H6c7 cells, cells in keratinocyte serum free media were treated with drugs for 48 h. Then, cell viability was measured using MTT assay. Optical density was measured at 540 nm using a Spectrostar Nano microplate reader (BMG LABTECH).

Hep3B cells = experiment: Sphere formation assay; format: cell-based; conditions: Homo sapiens, 48 h drug treatment, 13 days culture, read-out: % Inhibition of sphere forming Hep3B
Method: (§4) Sphere forming ability of Hep3B and Huh7 cells were examined after incubation with drugs for 48 h. Briefly, 3 × 10^3 cells which were pre-treated with or without drugs in prEGM media (Lonza, Basel, Switzerland) were seeded on an ultra-low adhering 24 well plate (Corning Incorporated Costar, Corning, NY). Twice a week, 500 µL of used medium was replaced with fresh prEGM media. At 13 days after plating, images of spheres were captured using Celloger Mini (Curiosis Inc., Seoul, South Korea). The number of spheroids over 50 µm in diameter was counted by using Image J software (National Institute of Health, Bethesda, MD).

Huh7 cells = experiment: Sphere formation assay; format: cell-based; conditions: Homo sapiens, Huh-7, 48 h drug treatment, 13 days culture, read-out: % Inhibition of sphere forming Huh7
Method: as §4

SMILES | inhibition at 1 µM (A-Raf) | inhibition at 1 µM (B-Raf) | inhibition at 1 µM (B-Raf (V600E)) | inhibition at 1 µM (C-Raf) | melting point | also measured
CNC(=O)c1cc(Oc2c(C)nc(NC(=O)Nc3cccc(C(F)(F)F)c3)c(C)c2C)ccn1 [Compound 6, N-Methyl-4-((2,4,5-trimethyl-6–(3-(3-(trifluoromethyl)phenyl)ureido)pyridin-3-yl)oxy)picolinamide] | 84.6% | 65% | 88.2% | 92.5% | 244 °C | IC50 (A-Raf; mean ± SD of two independent experiments, read-out: In vitro Raf kinase inhibition IC50 A-Raf): 57 ± 8.6 nM; IC50 (B-Raf; mean ± SD of two independent experiments, read-out: In vitro Raf kinase inhibition IC50 B-Raf): 216 ± 43.6 nM; IC50 (B-Raf (V600E); mean ± SD of two independent experiments, read-out: In vitro Raf kinase inhibition IC50 B-Raf(V600E)): 70 ± 0.4 nM; IC50 (C-Raf; mean ± SD of two independent experiments, read-out: In vitro Raf kinase inhibition IC50 C-Raf): 22 ± 0.8 nM; inhibition at 1 µM (VEGFR-2 tyrosine kinase): ~-6%; IC50 (Hep3B): 6.49 ± 0.12 µM; IC50 (HepG2): 5.02 ± 0.06 µM; IC50 (Huh7): 4.77 ± 0.09 µM; CC50 at 48 h ([1]; CCD841 cells (normal colon epithelial cell line)): > 10 µM; CC50 at 48 h ([1]; H6c7 cells (normal pancreatic ductal epithelial cell line)): > 10 µM; inhibition at 1 µM (Hep3B cells; 1 μM): 38.3%; inhibition at 10 µM (Hep3B cells; 10 μM): 55.6%; inhibition at 1 µM (Huh7 cells; 1 μM): 23.8%; inhibition at 10 µM (Huh7 cells; 10 μM): 44.2%
CNC(=O)c1cc(Oc2c(C)nc(NC(=O)Nc3ccc(OC(F)(F)F)cc3)c(C)c2C)ccn1 [Compound 12, N-Methyl-4-((2,4,5-trimethyl-6-(3-(4-(trifluoromethoxy)phenyl)ureido)pyridin-3-yl)oxy)picolinamide] | 12.4% | 6.6% | 22.2% | 37.5% | 185 °C | –
CNC(=O)c1cc(Oc2c(C)nc(NC(=O)Nc3ccc(OC)cc3)c(C)c2C)ccn1 [Compound 13, 4-((6-(3-(4-Methoxyphenyl)ureido)-2,4,5-trimethylpyridin-3-yl)oxy)-N-methylpicolinamide] | 14.7% | 5.1% | 33.4% | 55.9% | 258 °C | –
CNC(=O)c1cc(Oc2c(C)nc(NC(=O)Nc3ccc(C)cc3)c(C)c2C)ccn1 [Compound 14, N-Methyl-4-((2,4,5-trimethyl-6-(3-(p-tolyl)ureido)pyridin-3-yl)oxy)picolinamide] | 51% | 44.5% | 62.2% | 73.6% | 247 °C | –
CNC(=O)c1cc(Oc2c(C)nc(NC(=O)Nc3ccc(C(C)C)cc3)c(C)c2C)ccn1 [Compound 15, 4-((6-(3-(4-Isopropylphenyl)ureido)-2,4,5-trimethylpyridin-3-yl)oxy)-N-methylpicolinamide] | 33.6% | 43.2% | 39% | 76.1% | 188 °C | –
CNC(=O)c1cc(Oc2c(C)nc(NC(=O)Nc3c(C)cccc3C(C)(C)C)c(C)c2C)ccn1 [Compound 16, 4-((6-(3-(2-(Tert-Butyl)-6-methylphenyl)ureido)-2,4,5-trimethylpyridin-3-yl)oxy)-N-methylpicolinamide] | 8.6% | -7.1% | 7.1% | -6.4% | 206 °C | –
CNC(=O)c1cc(Oc2c(C)nc(NC(=O)Nc3cccc4ccccc34)c(C)c2C)ccn1 [Compound 17, N-Methyl-4-((2,4,5-trimethyl-6-(3-(naphthalen-1-yl)ureido)pyridin-3-yl)oxy)picolinamide] | 10.2% | -6.8% | 10.1% | 7.1% | 266 °C | –

Continued, in another order:

inhibition at 1 µM (A-Raf) | inhibition at 1 µM (B-Raf) | inhibition at 1 µM (B-Raf (V600E)) | inhibition at 1 µM (C-Raf) | melting point | SMILES | also measured
16.4% | -10% | 8.9% | -0.8% | 192 °C | CNC(=O)c1cc(Oc2c(C)nc(NC(=O)NC3CC3)c(C)c2C)ccn1 [Compound 20, 4-((6-(3-Cyclopropylureido)-2,4,5-trimethylpyridin-3-yl)oxy)-N-methylpicolinamide] | –
18.9% | 8.6% | 26.7% | 35.2% | 177 °C | CNC(=O)c1cc(Oc2c(C)nc(NC(=O)NC(=O)c3ccccc3)c(C)c2C)ccn1 [Compound 21, 4-((6-(3-Benzoylureido)-2,4,5-trimethylpyridin-3-yl)oxy)-N-methylpicolinamide] | –
11% | 0.3% | 11.6% | 6.7% | 205 °C | CNC(=O)c1cc(Oc2c(C)nc(NC(=O)Nc3ccc(N)cc3)c(C)c2C)ccn1 [Compound 23, 4-((6-(3-(4-Aminophenyl)ureido)-2,4,5-trimethylpyridin-3-yl)oxy)-N-methylpicolinamide] | –
11.9% | -19.3% | 4.4% | -8.3% | 206 °C | Cc1nc(NC(=O)Nc2ccc(Cl)c(C(F)(F)F)c2)c(C)c(C)c1OCc1ccccc1 [Compound 24, 1-(5-(Benzyloxy)-3,4,6-trimethylpyridin-2-yl)-3-(4-chloro-3-(trifluoromethyl)phenyl)urea] | –
72.4% | 48.5% | 75.2% | 91% | 251 °C | CNC(=O)c1cc(Oc2c(C)nc(NC(=O)Nc3ccc(Cl)c(C(F)(F)F)c3)nc2C)ccn1 [Compound 28, 4-((2-(3-(4-Chloro-3-(trifluoromethyl)phenyl)ureido)-4,6-dimethylpyrimidin-5-yl)oxy)-N-methylpicolinamide] | –
